The subject of data set [1] is HCC827-Luc. In words: Induction of caspase-mediated apoptosis in human HCC827-Luc cells assessed as reduction in cell viability pretreated with caspase inhibitor Z-VAD-fmk for 1 hr followed by compound addition and measured after 72 hrs by CCK-8 assay. It is filed as functional, cell-based. On the technique in general: Formazan colour is commonly taken as a measure of viable cells.

Data set [2] relates to NCI-H460-Luc. Kind of data set: Induction of apoptosis in human NCI-H460-Luc cells weakly expressing FHIT assessed as reduction in cell viability measured after 24 hrs by CCK-8 assay. It counts as functional, cell-based.
For data set [3], the system named is HCC827-Luc. Kind of data set: Induction of apoptosis in human HCC827-Luc cells assessed as increase in caspase 3/7 activity at 10 uM measured after 24 hrs by confocal fluorescence microscopic analysis. It is filed as functional, cell-based.
Data set [4] deals with HCC827-Luc. Kind of data set: Induction of apoptosis in human HCC827-Luc cells expressing FHIT assessed as reduction in cell viability measured after 24 hrs by CCK-8 assay. It is filed as functional, cell-based.
Data set [5] has as its target Bis(5'-adenosyl)-triphosphatase (Homo sapiens) (UniProt P49789). Kind of data set: Noncompetitive inhibition of human recombinant FHIT assessed as reduction in hydrolysis of TG-CMP at 1 to 9 uM measured for 30 mins by Lineweaver-Burk plot analysis. Particulars: dose 1-9 µM.
Data set [6] concerns HCC827-Luc. Kind of data set: Induction of apoptosis in human HCC827-Luc cells expressing FHIT cocultured with human NCI-H460-Luc cells assessed as PI-positive cells at 10 uM incubated for 12 hrs by calcein AM/Hoechst/PI staining based confocal fluorescence microscopic analysis. It counts as functional, cell-based.
The test system of data set [7] is NCI-H460-Luc. Kind of data set: Induction of apoptosis in human NCI-H460-Luc cells weakly expressing FHIT cocultured with human HCC827-Luc cells assessed as PI-positive cells at 10 uM incubated for 12 hrs by calcein AM/Hoechst/PI staining based confocal fluorescence microscopic analysis. It is filed as functional, cell-based.
The test system of data set [8] is HCC827-Luc. In words: Induction of apoptosis in human HCC827-Luc cells assessed as increase in caspase 3/7 activity at 1 uM measured after 24 hrs by confocal fluorescence microscopic analysis. It counts as functional, cell-based.
The test system of data set [9] is COc1ccc(-c2c3ccc(=O)cc-3oc3cc(OCOP(=O)(O)OC[C@H]4O[C@@H](n5ccc(N)nc5=O)[C@H](O)[C@@H]4O)ccc23)c(C)c1. In words: Substrate activity at human recombinant FHIT assessed as Km by Michaelis-Menten analysis.
The test system is the same in data set [10]. Kind of data set: Substrate activity at human recombinant FHIT assessed as Kcat by Michaelis-Menten analysis.
Data set [11] concerns COc1ccc(-c2c3ccc(=O)cc-3oc3cc(OCOP(=O)(O)OC[C@H]4O[C@@H](n5ccc(=O)[nH]c5=O)[C@H](O)[C@@H]4O)ccc23)c(C)c1. In words: (§1) Substrate activity at human recombinant FHIT assessed as Kcat/Km by Michaelis-Menten analysis.
Data set [12] deals with COc1ccc(-c2c3ccc(=O)cc-3oc3cc(OCOP(=O)(O)OC[C@H]4O[C@@H](n5ccc(N)nc5=O)[C@H](O)[C@@H]4O)ccc23)c(C)c1. Described as §1.
The subject of data set [13] is COc1ccc(-c2c3ccc(=O)cc-3oc3cc(OCOP(=O)(O)OC[C@H]4O[C@@H](n5cnc6c(=O)[nH]c(N)nc65)[C@H](O)[C@@H]4O)ccc23)c(C)c1. The description is as §1.
The test system of data set [14] is COc1ccc(-c2c3ccc(=O)cc-3oc3cc(OCOP(=O)(O)OC[C@H]4O[C@@H](n5cnc6c(N)ncnc65)[C@H](O)[C@@H]4O)ccc23)c(C)c1. The description is as §1.
Data set [15] concerns the target Bis(5'-adenosyl)-triphosphatase (Homo sapiens) (UniProt P49789). Kind of data set: Inhibition of recombinant human FHIT at 100 uM incubated for 1 hr by fluorescence based analysis relative to control.
Data set [16] has the same target. In words: Inhibition of recombinant human FHIT at 10 uM incubated for 1 hr by fluorescence based analysis relative to control.
The target is the same in data set [17]. In words: Inhibition of recombinant human FHIT assessed as reduction in AP3Aase activity at 50 uM measured after 45 mins by HPLC analysis relative to control.

The source made the active and inactive calls. The calls are words filed in the database; no cut-off is given here. A value given as a limit tells only on which side of the number the result lay.

Bis(5'-adenosyl)-triphosphatase (Homo sapiens), sequence (P49789 whole entry, looked up): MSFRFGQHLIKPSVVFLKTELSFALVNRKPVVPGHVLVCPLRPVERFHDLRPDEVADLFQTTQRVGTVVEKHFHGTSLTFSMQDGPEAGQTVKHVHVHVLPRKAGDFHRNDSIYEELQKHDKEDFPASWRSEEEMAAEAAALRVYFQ
Bis(5'-adenosyl)-triphosphatase (Homo sapiens), P49789, sequence (P49789 whole entry): as the sequence (P49789 whole entry, looked up) above

For `Cc1c(OCC(=O)NO)ccc2c3c(c(=O)oc12)CCCC3`, the result in the data set with HCC827-Luc [1] and in the data set on NCI-H460-Luc [7] was inactive. In addition, the result in the data set on NCI-H460-Luc [2], in the data set on HCC827-Luc [3], in the data set with HCC827-Luc [4] and in the data set on HCC827-Luc [6] was Active. Also, the inhibition (commonly the relative decrease from the control value, in per cent) in [5] was “Active”.
Turning to `Cc1c(OCC(=O)O)ccc2c3c(c(=O)oc12)CCCC3`, the outcome in the data set on NCI-H460-Luc [2] and in the data set with HCC827-Luc [4] was inactive.
With `CN[C@@H]1C[C@H]2O[C@@](C)([C@@H]1OC)n1c3ccccc3c3c4c(c5c6ccccc6n2c5c31)C(=O)NC4`, the result in the data set with HCC827-Luc [8] was inactive.
“Bis(5'-adenosyl)-triphosphatase (Homo sapiens), P49789”: in [9], the Km (usually the substrate concentration at which the rate is half of its maximum) came out at 37 µM. Further, the kcat (commonly the maximal rate divided by the concentration of active sites) in [10] was 0.35 s⁻¹. The kcat/Km (commonly the turnover number divided by the Michaelis constant) in [11] stood at 1830 M⁻¹ s⁻¹; in data set [12], 9330 M⁻¹ s⁻¹; in data set [13] it was 967 M⁻¹ s⁻¹; in [14] it was 6330 M⁻¹ s⁻¹.
In the case of `Nc1ncnc2c1ncn2[C@@H]1O[C@H](COP(=O)(O)O)[C@@H](O)[C@H]1O`, the inhibition in data set [15] was > 50%.
On to `O=C(Cn1cc([N+](=O)[O-])ccc1=O)NC(=O)NCc1ccco1`, for which the values for the inhibition in data set [16] and in [17] were > 80% and 59%, respectively.
As for `CN1C(=O)N/C(=C/c2cccn2-c2ccc(C(=O)O)cc2)C1=O`, the figures for the inhibition in data set [16] and in data set [17] were > 80% and 51%, respectively.
`Cc1c(OCc2nn[nH]n2)ccc2c3c(c(=O)oc12)CCC(C)C3` (stereo not given): the inhibition in [16] is > 80%; in data set [17], 76%.
With `Nc1ncnc2c1ncn2[C@@H]1O[C@H](COP(=O)(O)OP(=O)(O)OP(=O)(O)OP(=O)(O)OC[C@H]2O[C@@H](n3cnc4c(N)ncnc43)[C@H](O)[C@@H]2O)[C@@H](O)[C@H]1O`, in data set [15], the inhibition was > 50%.
With `O=C(O)c1ccc2[nH]c(-c3ccnc(-c4cccnc4)c3)nc2c1`, the values for the inhibition in data set [16] and in data set [17] were > 80% and 95%, respectively.
`Cc1c(OCC#N)ccc2c3c(c(=O)oc12)CCCC3`: the result in the data set with NCI-H460-Luc [2] and in the data set with HCC827-Luc [4] was inactive.
Consider `O=C(O)c1ccc(/C=N/NC(=O)c2nc(-c3ccccc3)n(-c3ccccc3)n2)cc1`, for which the inhibition in data set [16] was > 80%.
As for `Nc1ncnc2c1ncn2[C@@H]1O[C@H](COP(=O)(O)OP(=O)(O)OP(=O)(O)OC[C@H]2O[C@@H](n3cnc4c(N)ncnc43)[C@H](O)[C@@H]2O)[C@@H](O)[C@H]1O`, the inhibition in data set [15] was > 50%.
For the molecule `NNC(=O)c1nn(-c2ccccc2)c(=O)cc1O`, in data set [16], the inhibition was > 80%.
As to `CCOC(=O)c1c(C)sc(N)c1C(=O)OCC`, the inhibition in data set [16] is > 80%.
With `Cc1c(OCc2nn[nH]n2)ccc2c3c(c(=O)oc12)CCCC3`, the outcome in the data set on NCI-H460-Luc [2] and with HCC827-Luc [4] was inactive.
Regarding `COCC(=O)N1CC[C@@H]2[C@H]1C(=O)NC[C@H](CCC(=O)OC)N2C`, the inhibition in [16] is > 80%.

These data come from ChEMBL document CHEMBL5032508, “Synthesis of Fluorescent Probes Targeting Tumor-Suppressor Protein FHIT and Identification of Apoptosis-Inducing FHIT Inhibitors” (J Med Chem, 2021).
